US10800778B2 (Entasis Therapeutics Limited, priority 2016, dated 2020)
pIC50: −log10 of the molar value. Structures can show the parent of a compound that is named as a salt.

How the values were obtained:
[1] = system: E. coli AmpC, OXA-1, CTX-M-15, TEM-1; experiment: MIC, CLSI broth microdilution, cefpodoxime with or without BLI; assay type: cell-based; details: Escherichia coli, read-out: MIC of beta-lactam alone, heading: MIC of beta-lactam alone, no BLI
Method: (§1) The minimal inhibitory concentration (MIC) values against each organism and drug combination were determined using the Clinical and Laboratory Standards Institute guidelines (CLSI) broth microdilution methodology (CLSI M07-A10). The recommended quality control (QC) bacterial strains E. coli ATCC 25922, E. coli ATCC 35218 and Klebsiella pneumoniae ATCC 700603 were incorporated into each test according to the CLSI guidelines to assure that there was no variation between test dates (CLSI M100-S25). The MICs of these QC strains were within QC range on all test occasions. Drug containing plates were made using the master plate method. A cefpodoxime solution was prepared to 20× concentration and 2-fold serial dilutions were made in cation adjusted Mueller-Hinton Broth. Equal volumes of 20× examplar compounds at a fixed concentration were added to the master plate. 10 uL was stamped into daughter plates using a Tecan EVO robot. Organism suspensions were adjusted to a 0.5 McFarland standard and further diluted to yield a final inoculum between 3×10^5 and 7×10^5 colony-forming units (CFU)/mL. Bacterial inocula were made in sterile, cation adjusted Mueller-Hinton Broth (Beckton Dickinson). An inoculum volume of 1.1× concentration of 90 uL was added to wells (using a Tecan EVO robot). All inoculated microdilution plates were incubated in ambient air at 35° C. for 18-24 hours.

[2] = system: E. coli ARC2687 (AmpC, CTX-M-14); experiment: Cefpodoxime MIC against clinical isolate E. coli ARC2687; assay type: cell-based
[3] = system: C. freundii AmpC, TEM-1, CMY65; experiment: MIC, CLSI broth microdilution, beta-lactam with or without BLI; assay type: cell-based
Method: as §1
(§2) Following the procedure from Example 103, MICs were determined for several beta-lactams in presence of a fixed concentration (4 μg/mL) of exemplar compounds (Table 3) against 3 Enterobacteriaceae strains.

[4] = system: E. coli WT (ATCC 25922); experiment: as above; assay type: cell-based
Method: as §1, §2

[5] = system: Klebsiella pneumoniae SHV-18, OXA-2, OKP-6 (ATCC 700603); experiment: as above; assay type: cell-based
Method: as §1, §2

[6] = Rat PK, intravenous and oral; assay type: in vivo, Sprague-Dawley rats
Method: Intravenous rat pharmacokinetics of exemplar compounds were determined in jugular vein cannulated Sprague-Dawley rats (n=3) (Harlan Laboratories, Indianapolis, Ind.) at a dose of 10 mg/kg. Compounds were dissolved and administered intravenously in 0.9% saline, pH 6.5 at a dose volume of 2 mL/kg. […] Oral pharmacokinetic studies were conducted with exemplar compounds at 10 mg/kg equivalents of carboxylic acids. Doses were dissolved and administered orally in 25:75 PEG400: water for injection, pH 4.5 at a dose volume of 10 mL/kg. […] Plasma samples were stored at −80° C. prior to bioanalysis.
Plasma samples were thawed on ice prior to processing. Samples (30 μL) were diluted and proteins precipitated with 180 μL of acetonitrile containing 0.1% formic acid and 250 ng/mL of carbutamide (N1-(butylcarbanoyl)-sulfanilamide, Sigma-Aldrich Catalog # S385433) as an internal standard. Samples were vortexed for 30 seconds, centrifuged at 3400 g for 10 minutes and the supernatant transferred to injection vials.
LC/MS/MS analysis was completed on an AB Sciex QTrap 6500 mass spectrometer in positive ionization mode, coupled to a Schimadzu Nexera LC system. A Waters Atlantis T3 (3 μm, 3.0×50 mm) column was used for chromatographic separation. Injection volume was […] The mobile phase consisted 0.1% formic acid in water (A) and 0.1% formic acid in acetonitrile (B), with a gradient of 2-98% B:A over two minutes.
Plasma concentration vs. time profiles following intravenous (IV) administration and oral (PO) administration of exemplar compounds were analyzed by non-compartment analysis using WinNonLin 6.4.

[7] = target: TEM-1 (Class A beta-lactamase) (Escherichia coli, UniProt P62593); experiment: Inhibition of beta-lactamase enzymes (nitrocefin hydrolysis), TEM-1; assay type: biochemical; details: read-out: Class A TEM-1 60 min IC50, nitrocefin 100 μM
In short: (§3)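 Nitrocefin (100 μM) hydrolysis followed at 490 nm for 1 h in 0.1 M sodium phosphate pH 7.0, 10 mM NaHCO3, 0.005% Triton X-100, with 3-fold inhibitor dilutions from 100 μM to 62.7 pM. Progress curves fitted globally to give kinact/Ki or Ki; percent inhibition from best-fit absorbance fitted with Hill equation.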

[8] = target: OXA-48 (Class D beta-lactamase) (Klebsiella pneumoniae, UniProt Q6XEC0); experiment: Inhibition of beta-lactamase enzymes (nitrocefin hydrolysis), OXA-48; assay type: biochemical; details: read-out: Class D OXA-48 60 min IC50, nitrocefin 100 μM
In short: as §3

[9] = Stability/conversion of esters in rat intestinal S9; assay type: in vitro ADME; details: s9, pH 7.4, read-out: T1/2 Rat Intestinal S9
In short: (§4)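 Esters at 10 μM incubated at 37 °C with 0.8 mg/mL S9 (human intestinal without PMSF, rat liver or rat intestinal) or no enzyme, in 100 mM HEPES pH 7.4; sampled 0–60 min. LC-MS/MS tracked ester and hydrolysed active; first-order T1/2 from ester disappearance.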

[10] = Stability/conversion of esters in rat liver S9; assay type: in vitro ADME; details: s9, pH 7.4, read-out: T1/2 Rat Liver S9
In short: as §4

[11] = Stability/conversion of esters in human liver S9; assay type: in vitro ADME; details: s9, pH 7.4, read-out: T1/2 Human Liver S9
In short: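 Ester test compounds (10 μM) were incubated at 37° C with human liver S9 at 0.8 mg/mL in 100 mM HEPES buffer, pH 7.4. Aliquots taken from 0 to 60 min were quenched in acetonitrile containing carbutamide internal standard, centrifuged, and analyzed by LC-MS/MS MRM; first-order half-lives came from loss of the parent ester.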

[12] = Stability/conversion of esters in human intestinal S9; assay type: in vitro ADME; details: s9, pH 7.4, read-out: T1/2 Human Intestinal S9
In short: as §4

[13] = system: E. coli ARC2687 (AmpC, CTX-M-14); experiment: Mouse neutropenic thigh infection model, oral efficacy of cefpodoxime proxetil with Example 35; assay type: in vivo
Method: The oral in vivo efficacy of Example 35 was evaluated in combination with cefpodoxime proxetil in a mouse neutropenic thigh infection model versus a relevant clinical isolate. […] CD-1 mice (Charles River, Wilmington US) were housed in shoebox type cages with contact bedding and acclimated to the facility for a minimum of 2 days prior to use. The animal room was maintained at 70° F., with 50+/−10% relative humidity and a 12-hour light/dark cycle. The study was conducted using an IACUC-approved protocol in accordance with Title 9 of the Code of Federal Regulations. Animals were rendered neutropenic with two intraperitoneal doses of cyclophosphamide (150 mg/kg—4 days and 100 mg/kg—1 day prior to infection (Gerber et al. (1983) J Infect Dis 147(5); 910-917)). Animals were infected via an intramuscular challenge of ˜1×10^6 CFU administered within 100 μL of 0.9% saline. The inoculum was prepared from a 25 mL overnight culture of E. coli ARC 2687 in tryptic soy broth media. Following an OD600 determination, the inoculum was diluted in 0.9% saline to a concentration of […] prior to inoculation into the left and right thigh. Oral therapy with cefpodoxime proxetil alone and in combination with Example 35 was initiated 2 hours post bacterial challenge. Doses were suspended in 0.5% HPMC/0.1% Tween 80 and administered by oral gavage at a dose volume of 10 mL/kg. A terminal endpoint was obtained at 24 hr to determine bacterial counts in thigh tissue (CFU/gm). Animals were ethically euthanized, thighs were asceptically removed, weighed and homogenized in 1 mL of saline. Bacterial burden enumeration of tissue homogenate was performed by serial dilution on tryptic soy agar plates which were incubated overnight at 37° C. prior to colony (CFU) counting. The lower limit of detection was ˜2.6 log10 CFU/gm of tissue.

[14] = Stability in pH 7.4 buffer (no enzyme); assay type: physicochemical; details: buffer, read-out: T1/2 pH 7.4 Buffer
In short: as §4

[15] = system: E. coli ARC2687 (AmpC, CTX-M-14); experiment: Mouse neutropenic thigh infection model, oral efficacy of cefpodoxime proxetil with Example 35; assay type: in vivo; remark: listed apart in the source
[16] = BLI at fixed 4 μg/ml, K. pneumoniae ATCC 700603

Chain of TEM-1 (Class A beta-lactamase) (P62593 whole entry, looked up, species assumed): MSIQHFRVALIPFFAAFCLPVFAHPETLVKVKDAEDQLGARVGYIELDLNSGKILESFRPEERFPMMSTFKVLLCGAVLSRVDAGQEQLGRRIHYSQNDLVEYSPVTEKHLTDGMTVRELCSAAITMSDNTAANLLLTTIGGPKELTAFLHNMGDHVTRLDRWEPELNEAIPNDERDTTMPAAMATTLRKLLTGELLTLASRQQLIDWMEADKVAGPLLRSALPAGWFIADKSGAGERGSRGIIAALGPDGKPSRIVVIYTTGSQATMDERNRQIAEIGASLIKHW
Chain of OXA-48 (Class D beta-lactamase) (Q6XEC0 whole entry, looked up, species assumed): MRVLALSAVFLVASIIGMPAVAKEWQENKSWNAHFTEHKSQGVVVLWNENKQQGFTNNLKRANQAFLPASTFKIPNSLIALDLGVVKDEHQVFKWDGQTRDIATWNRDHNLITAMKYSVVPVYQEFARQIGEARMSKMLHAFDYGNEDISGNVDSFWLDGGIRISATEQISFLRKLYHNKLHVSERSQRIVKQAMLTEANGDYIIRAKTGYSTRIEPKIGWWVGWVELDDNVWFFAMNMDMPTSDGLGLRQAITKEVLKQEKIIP

COCC1=C(C(=O)O)N2C(=O)[C@@H](NC(=O)/C(=N\OC)c3csc(N)n3)[C@H]2SC1 [Cefpodoxime, reference compound]
MIC [1]: > 64 µg/mL | MIC ([2]; Escherichia coli, cefpodoxime alone): > 512 µg/mL | MIC ([3]; Citrobacter freundii, read-out: MIC of beta-lactam alone, no BLI, heading: MIC of beta-lactam alone): > 64 µg/mL | MIC of beta-lactam alone ([3]; no BLI): >64 µg/mL | MIC ([4]; Escherichia coli, ATCC25922, no BLI, read-out: MIC of beta-lactam alone): 1 µg/mL | MIC ([5]; Klebsiella pneumoniae, ATCC700603, no BLI, K. pneumoniae SHV-18, OXA-2, OKP-6 (ATCC 700603), read-out: MIC of beta-lactam alone): 16 µg/mL

CC1=C[C@@H](C(N)=O)N2C[C@@H]1N(O[C@H](F)C(=O)O)C2=O [Example 33, (2R)-2-(((2S,5R)-2-carbamoyl-4-methyl-7-oxo-1,6-diazabicyclo[3.2.1]oct-3-en-6-yl)oxy)-2-fluoroacetic acid lithium salt]
AUC ([6]; Sprague-Dawley, plasma, rat, IV 10 mg/kg, analyte = compound administered): 26.3 µM·h | cefpodoxime MIC in combination with BLI ([2]; BLI at 4 μg/mL): < 0.03 µg/mL | pIC50 [7]: 8.49 | MIC of cefixime in presence of BLI ([3]; BLI at fixed 4 μg/ml): ≤0.06 µg/mL | MIC of cefuroxime in presence of BLI ([3]; BLI at fixed 4 μg/ml): <0.03125 µg/mL | MIC of faropenem in presence of BLI ([3]; BLI at fixed 4 μg/ml): ≤0.06 µg/mL | MIC of tebipenem in presence of BLI ([3]; BLI at fixed 4 μg/ml): ≤0.06 µg/mL | MIC of cefixime in presence of BLI ([4]; BLI at fixed 4 μg/ml): ≤0.06 µg/mL | MIC of cefuroxime in presence of BLI ([4]; BLI at fixed 4 μg/ml): <0.03125 µg/mL | MIC of faropenem in presence of BLI ([4]; BLI at fixed 4 μg/ml): ≤0.06 µg/mL | MIC of tebipenem in presence of BLI ([4]; BLI at fixed 4 μg/ml): ≤0.06 µg/mL | MIC of cefixime in presence of BLI [5, 16]: ≤0.06 µg/mL | MIC of cefuroxime in presence of BLI [5, 16]: 4 µg/mL | MIC of faropenem in presence of BLI [5, 16]: 0.5 µg/mL | MIC of tebipenem in presence of BLI [5, 16]: 0.125 µg/mL | pIC50 [8]: 7.11

CC1=C[C@@H](C(N)=O)N2C[C@@H]1N(O[C@H](F)C(=O)OC(C)C)C2=O [Example 35, (2R)-isopropyl 2-(((2S,5R)-2-carbamoyl-4-methyl-7-oxo-1,6-diazabicyclo[3.2.1]oct-3-en-6-yl)oxy)-2-fluoroacetate]
half-life at 10 μM [9]: 4 h | half-life at 10 μM [10]: 0.533 h | Circulating concentrations of the ester in plasma ([6]; rat plasma, LC/MS/MS): Rapid hydrolysis precluded satisfactory analysis of circulating concentrations | half-life at 10 μM [11]: 0.65 h | half-life at 10 μM [12]: 2.72 h | maximal kill relative to initiation of therapy ([13]; 50 mg/kg cefpodoxime proxetil + 100 mg/kg Example 35 q6h, oral, 24 hr): −0.75 log10 CFU/gm | log10CFU/gm thigh ([13]; Example 35 alone 10 mg/kg PO/q6h, mouse neutropenic thigh, E. coli ARC2687): 9.56 log10CFU/gm thigh | CFU Change from 26 hr ([13]; Example 35 alone 10 mg/kg PO/q6h, relative to 26 hr growth control): −1.30 log10 CFU/gm | CFU Change from 2 hr ([13]; Example 35 alone 10 mg/kg PO/q6h, relative to initiation of therapy): +3.29 log10 CFU/gm | growth of bacterial burden in thighs after 24 hours of therapy ([13]; Example 35 alone at 10 mg/kg q6h, oral, neutropenic CD-1 mice): greater than 3 log10 CFU/gm | effect of increasing dose on bacterial burden ([13]; in combination with cefpodoxime proxetil 50 mg/kg q6h, oral): dose dependent reduction of bacterial burden | half-life at 10 μM [14]: 3.1 h

C[C@@H](O)[C@H]1C(=O)N2C(C(=O)O)=C(S[C@@H]3CN[C@H](C(=O)N(C)C)C3)[C@H](C)[C@H]12 [Meropenem]
reduction in CFU relative to initiation of therapy ([15]; 600 mg/kg q6h administered subcutaneously, positive control): over 1 log10 | log10CFU/gm thigh ([15]; Meropenem 600 mg/kg SC/q6h, positive control, mouse neutropenic thigh, E. coli ARC2687): 5.17 log10CFU/gm thigh | CFU Change from 26 hr ([15]; Meropenem 600 mg/kg SC/q6h, relative to 26 hr growth control): −5.69 log10 CFU/gm | CFU Change from 2 hr ([15]; Meropenem 600 mg/kg SC/q6h, relative to initiation of therapy): −1.10 log10 CFU/gm
